Measured values taken from BindingDB's records for patent US9745328 (Janssen Pharmaceutica NV, 2017).

Biological target: T1, Arachidonate 5-lipoxygenase-activating protein (Homo sapiens, UniProt P20292)
T1 sequence (P20292 whole entry): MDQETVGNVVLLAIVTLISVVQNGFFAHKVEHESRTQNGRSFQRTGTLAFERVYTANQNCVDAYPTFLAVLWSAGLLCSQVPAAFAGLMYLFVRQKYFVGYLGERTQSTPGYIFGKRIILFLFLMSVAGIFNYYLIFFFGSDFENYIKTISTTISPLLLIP
Test: Binding Assay
Description: The FLAP binding assay is performed in HTRF format (homogeneous time resolved fluorescence). FLAP-containing membranes (1 μg/well final for human) are incubated in the presence of the HTRF ligand. […] The reaction is allowed to proceed for two hours after which the plate is read on an Envision plate reader in HTRF mode. Data are expressed as a HTRF ratio. For human FLAP binding assays, data are analyzed with 3DX Explorer software. […] For analysis, data from multiple runs are averaged and each compound may be tested in 2 to 20 runs. Each run comprises two plates and each plate includes duplicates. Data from each plate is averaged and data are imported into 3DX. The data from multiple runs are aggregated as the average of duplicates of the calculated ratios in order to calculate Ki and IC50 values.

- Ki: 41.1 nM
Structure (SMILES): Nc1cnc(-c2ccc(-c3ccccc3-c3ccc(N)nn3)cc2F)cn1 [US9745328, Compound 863]
